Data as given in patent US20180296630A1, “METHODS AND COMPOSITIONS FOR PREVENTING OR TREATING OPHTHALMIC CONDITIONS” (Stealth BioTherapeutics Corp, priority 2012, published 2018).

Legend:
[1] = tested on: trabecular meshwork cells from POAG patients (GTM); assay: LDH cytotoxicity assay, GTM cells; assay type: cell-based, human
Description: (§1) In this Example, the effects of the aromatic-cationic peptides of the invention were compared between trabecular meshwork cells from POAG patients (GTM) and trabecular meshwork cells from non-diseased individuals (HTM). Methods useful in the studies of the present invention have been described. See generally, He Y, Ge J, Tombran-Tink J., Mitochondrial defects and dysfunction in calcium regulation in glaucomatous trabecular meshwork cells. Invest Ophthalmol Vis Sci. 2008, 49(11):4912-22; He Y, Leung K W, Zhang Y H, Duan S, Zhong X F, Jiang R Z, Peng Z, Tombran-Tink J, Ge J. Mitochondrial complex I defect induces ROS release and degeneration in trabecular meshwork cells of POAG patients: protection by antioxidants. Invest Ophthalmol Vis Sci. 2008, 49(4):1447-58. […]
(§2) To assess whether D-Arg-2′,6′-Dmt-Lys-Phe-NH2 had cytotoxic effects of HTM or GTM cells, various concentrations of D-Arg-2′,6′-Dmt-Lys-Phe-NH2 were administered to cells and the cytotoxicity was measured using an LDH assay. […] The assay quantitatively measures the stable, cytosolic, lactate dehydrogenase (LDH) enzyme, which is released from damaged cells. The released LDH is measured with a coupled enzymatic reaction that results in the conversion of a tetrazolium salt (iodonitrotetrazolium (INT)) into a red color formazan by diaphorase. […] The LDH activity is determined as NADH oxidation or INT reduction over a defined time period.

[2] = tested on: trabecular meshwork cells from non-diseased individuals (HTM); assay: LDH cytotoxicity assay, HTM cells; assay type: cell-based, human
Description: as §1, §2

[3] = tested on: primary human retinal pigment epithelial (RPE) cells; assay: MMP of RPE cells exposed to tBHP (JC-1, FACS); assay type: cell-based
Protocol: Next, the viability of primary RPE cells was tested in the presence of tBHP and various concentrations of D-Arg-2′,6′-Dmt-Lys-Phe-NH2. Cells were plated at 10,000 cells per well in a 96-well plate and cultured for 24 h, then starved for 24 h. After that, cells were exposed to increasing concentrations of tBHP (FIG. 23A), or preincubated for 4 h with different concentrations of D-Arg-2′,6′-Dmt-Lys-Phe-NH2, then stimulated with tBHP for 6 h (FIG. 23B). […] Intracellular ROS production in three groups of RPE cells was also examined using FACS analysis. […] Three different concentration of D-Arg-2′,6′-Dmt-Lys-Phe-NH2 groups were analyzed. The ratio of red to green in 500 μM tBHP for the 3 h group is 1.08, the ratio of red to green in 10 nM D-Arg-2′,6′-Dmt-Lys-Phe-NH2 for 4 h+500 tBHP for 3 h group is 1.25; the ratio of red to green in 100 nM D-Arg-2′,6′-Dmt-Lys-Phe-NH2 for 4 hr+500 μM tBHP for 3 h group is 1.4; and the ratio of red to green in 1 μM D-Arg-2′,6′-Dmt-Lys-Phe-NH2 for 4 h+500 μM tBHP for 3 h group is […]. […] FIG. 33A: Control group, R/G is 3.63±0.24; FIG. 33B: 500 μM tBHP for 3 h group, R/G is 1.08±0.11; FIG. 33C: 1 μM D-Arg-2′,6′-Dmt-Lys-Phe-NH2 for 4 h+500 μM tBHP for 3 h group, R/G is 2.38±0.18. FIG. 33D is a chart comparing the fluorescence ratio for the different groups. *P<0.01, C vs. B.

[4] = tested on: CNV mouse model; assay: Laser-induced choroidal neovascularization (CNV) mouse model; assay type: in vivo, C57BL/6 male mice; details: one week after laser
Description: CNV were induced in the eye with laser burns. Methods useful in the present studies have been described by Reich, Mol Vis 2003; 9:210-216.
Briefly, five to six-week-old C57BL/6 male mice were anesthetized with chloral hydrate and the pupils were dilated with tropicamide. With a coverslip used as a contact lens, four laser spots (532 nm, 260 mw, 0.01 s, 50 μm; Novus Spectra, Lumenis, USA) were applied to the fundus in a circle around the optic disc in the right eye. Daily intraperitoneal injections of 1 mg/kg, 9 mg/kg D-Arg-2′,6′-Dmt-Lys-Phe-NH2 (D-Arg-2′,6′-Dmt-Lys-Phe-NH2) or vehicle were started the day prior to laser photocoagulation.
After one week, mice were deeply anaesthetized and perfused through the left ventricle with 1 ml (50 mg/ml) of PB S-buffered fluorescein-dextran. Eyes were enucleated and fixed in 4% paraformaldehyde for 2 h. The eyes were sectioned at the equator, and the anterior half and retina were removed. The posterior eye segment containing the sclera and choroid was dissected into quarters by four to five radial cuts and mounted on a slide. All flatmounts were examined by a fluorescence microscope (AxioCam MRC; Carl Zeiss). […]
There were 48 locations of neovascularization in each group. The area of neovascularization was calculated using IMAGE-PROPLUS6.0 software. […]

Substance: D-Arg-2′,6′-Dmt-Lys-Phe-NH2
- cytotoxicity ([1]; 10^−4M): no cytotoxicity
- viability (LDH assay) ([1]; various concentrations): does not affect the viability
- cytotoxicity ([2]; 10^−4M): no cytotoxicity
- viability (LDH assay) ([2]; various concentrations): does not affect the viability
- ratio of red to green (JC-1) ([3]; 10 nM for 4 h + 500 tBHP for 3 h (FIG. 32)): 1.25
- ratio of red to green (JC-1) ([3]; 100 nM for 4 hr + 500 μM tBHP for 3 h (FIG. 32)): 1.4
- ratio of red to green (JC-1) ([3]; 1 μM for 4 h + 500 μM tBHP for 3 h (FIG. 32)): 2.28
- R/G (JC-1) ([3]; 1 μM for 4 h + 500 μM tBHP for 3 h (FIG. 33C)): 2.38±0.18
- area of neovascularization ([4]; 1 mg/kg daily intraperitoneal): 0.0068±0.0025
- area of neovascularization ([4]; 9 mg/kg daily intraperitoneal): 0.0067±0
